Data reported in publication PMC7391724 (Scientific Reports, 2020).
Counter-ions that a name gives are not always drawn.

Assays:
KB-CR tumors = assay: Cisplatin-resistant KB-CR tumor xenograft in nu/nu mice; format: in vivo
Procedure: (§1) Four- to eight-week-old female nu/nu mice and rats (Harlan Sprague Dawley, Inc.), were maintained on a standard 12-h light–dark cycle and fed ad libitum with a low-folate chow (Harlan Teklad diet #TD.01013, Madison, WI) for the duration of dosing and 1 week post dosing schedule. Mice and rats were then switched to Teklad Global 18% Rodent diet (Harlan Teklad diet #2018S) during the monitoring phase of the study. Parental KB, KB-CR2000 or KB-PR10 cells (1 × 10^6/100 µL per nu/nu mouse and 5 × 10^6/200 µL per nu/nu rat) were injected into the subcutis of the dorsal medial area. Mice were divided into groups of 5 and rats in groups of 3–4, and freshly prepared test articles were injected through the lateral tail vein under sterile conditions in a volume of 200 μL/20 g of PBS. In mice, intravenous treatments typically initiated on day 7 PTI when KB tumors were approximately 111–168 mm^3 in volume, on day 5 PTI when the KB-PR tumors were about 205–243 mm^3, and on day 6 PTI when the KB-CR tumors were around 98 to 168 mm^3. Treatments in rats were started on day 10 PTI when KB tumors were approximately 412–704 mm^3 in volume.
(§2) Animals in the control groups received no treatment. Growth of each subcutaneous tumor was followed by measuring the tumor 3 times per week during treatment and twice per week thereafter, until a maximum volume of 1,500 mm^3 for mice and 15,000 mm^3 for rats were reached. Tumors were measured in two perpendicular directions using Vernier calipers, and their volumes were calculated as V = 0.5 × L × W^2, where L = measurement of longest axis in mm and W = measurement of axis perpendicular to L in mm[16]. As a general measure of gross toxicity, changes in body weights were determined on the same schedule as tumor volume measurements. Survival of animals was monitored daily. Animals that were moribund (or unable to reach food or water) were euthanized by CO2 asphyxiation. Individual tumor response endpoints were reported in terms of tumor volume change. A partial response (PR) was defined as volume regression > 50% but with measurable tumor (> 2 mm^3) remaining at all times. Complete response (CR) was defined as a disappearance of measurable tumor mass (< 2 mm^3) at some point within 90 days after tumor implantation. Cures were defined as CRs without tumor regrowth within the 90-day study time frame.

KB-PR tumors = assay: Paclitaxel-resistant KB-PR tumor xenograft in nu/nu mice; format: in vivo
Procedure: as §1, §2

[1] = test system: ST040 patient derived xenograft; assay: ST040 endometrial PDX model; format: in vivo, nu/nu mice
Procedure: (§3) Patient derived xenograft (PDX) studies were performed at South Texas Accelerated Research Therapeutics (START, San Antonio, TX). Patient tumor tissues were obtained with patients’ informed consent and PDX models were generated after multiple generations in mice. […] Tumor fragments were harvested from host animals and implanted into 6–12 weeks old female athymic nude mice (Crl:NU(NCr)-Foxn1nu). Intravenous treatments were initiated when ST502 (triple negative breast) tumors were approximately 112–333 mm^3, ST738 (triple negative breast) tumors were 112–300 mm^3, ST040 (endometrial) tumors were 78–333 mm^3, and ST070 (ovarian) tumors were 131–266 mm^3 in volume.
as §2

[2] = test system: ST070 patient derived xenograft; assay: ST070 ovarian PDX model; format: in vivo, nu/nu mice
Procedure: as §3, §2

[3] = test system: ST502 patient derived xenograft; assay: ST502 triple negative breast PDX model; format: in vivo, nu/nu mice
Procedure: as §3, §2

[4] = test system: ST738 patient derived xenograft; assay: ST738 triple negative breast PDX model; format: in vivo, nu/nu mice; settings: Eribulin mesylate 1 mg/kg SIW x 2 weeks, n=7
Procedure: as §3, §2

[5] = parameters: method as in PMID 19276288; settings: clinical studies, untargeted agent ref 19; cited from earlier work
KB tumor xenografts = assay: KB tumor xenograft in nu/nu mice; format: in vivo; settings: SJG-136 0.3 mg/kg SIW x 2 weeks
Procedure: as §1, §2

[6] = Whole blood stability, mouse; format: in vitro ADME; settings: 37 °C, after two hours, mouse whole blood, read-out: percent remaining in whole blood
Procedure: (§4) Whole blood and plasma stability were determined for EC2629 and EC2491 at a concentration of 500 nM. Samples were extracted and analyzed using fit-for-purpose bioanalytical methods. EC2629 or EC2491 was spiked into 1 mL whole blood or plasma maintained at 37 °C for 30 min prior to use . Fifty µl aliquots were then removed at defined timepoints and stored in a 1.2 mL extraction plate prior to analysis. Samples were then extracted using protein precipitation with a 3:1 ratio of acetonitrile after addition of internal standard. The supernatant was then transferred to a new plate, evaporated, and reconstituted prior to LC–MS/MS analysis.

[7] = Stability in phosphate buffer pH 7.4; format: physicochemical; settings: 1 µM, 0.1 M phosphate buffer, pH 7.4, up to 1 h at 37 °C
Procedure: The in vitro metabolic stability of EC2491 was evaluated using rat, dog, and human liver microsomes in the presence and absence of NADPH. Stability of EC2491 was also evaluated in phosphate buffer, pH 7.4, under the incubation conditions (see Fig. 7a). EC2491 (1 µM) is stable in 0.1 M phosphate buffer, pH 7.4 up to 1 h at 37 °C. When EC2491 (1 µM) is incubated with male rat, dog, and human microsomes in the absence of NADPH, there is some depletion of the compound such that approximately 63%, 56%, and 49% of the compound remains after 1 h in rat, dog, and human microsomes, respectively. […] In the presence of NADPH male rat liver microsomes metabolize EC2491 rapidly such that only 2% of the compound remains in the incubation mixture at the end of 1 h. Male dog and human liver microsomes metabolize EC2491 somewhat slowly (22% and 18% remaining at the end of 1 h respectively). This is indicative of CYP-mediated metabolism of EC2491.

[8] = Liver microsome stability assay, human; format: in vitro ADME; settings: 1 µM, human liver microsomes, 37 °C
Procedure: (§5) Appropriate microsomes (XenoTech) were incubated with EC2491 in the presence or absence of NADPH regenerating system (Corning Gentest) at 37 °C. Incubations with NADPH contained 352.5 μL DI water, 100 μL 0.5 M potassium phosphate buffer, pH 7.4, 25 μL NADPH solution A, […], and 12.5 μL of the appropriate microsomes. Incubations without NADPH contained 382.5 μL water, 100 μL 0.5 M potassium phosphate buffer, pH 7.4, and 12.5 μL of the appropriate microsomes. 50 μL aliquots were withdrawn at various time points and mixed with internal standard, EC3044 (Endocyte) in acetonitrile. After mixing and evaporation of the acetonitrile, the samples were reconstituted. The samples were mixed, centrifuged, and 100 μL of supernatant was transferred to a new plate prior to LC–MS/MS analysis.

Plasma stability, mouse = format: in vitro ADME; settings: 37 °C
Procedure: as §4

[9] = Plasma protein binding (ultrafiltration), across all species; format: in vitro ADME; settings: rat, mouse, dog, human, 37 °C, read-out: plasma protein binding, range across all species
Procedure: Plasma ultrafiltration was used for determination of free and protein bound fractions of EC2629 and EC2491. Samples were extracted and analyzed using fit-for-purpose bioanalytical methods. Briefly, 500 nM EC2629 or EC2491 was spiked into plasma maintained at 37 °C prior to plasma ultrafiltration. Plasma spiked with 500 nM EC2629 or EC2491 was allowed to equilibrate at 37 °C for 30 min prior to processing. Next, 50 μL of plasma was transferred to a clean 1.2 mL plate stored at 2–8 °C for further processing. The remaining plasma sample volumes were transferred to 30 Kd MWCO PES filter to generate plasma ultrafiltrate by centrifugation at 10,000×g for 20 min. After which, 50 μL of each plasma ultrafiltrate was transferred to separate wells in a clean 1.2 mL plate. To all spiked plasma samples, 50 μL of blank plasma ultrafiltrate was added. 50 μL of blank plasma was added to all experimental ultrafiltrate samples. These blank matrix additions normalized the matrix effects for protein binding determination. Samples were then extracted using protein precipitation with a 3:1 ratio of acetonitrile after addition of internal standard. The supernatant transferred to a new plate, evaporated, and reconstituted prior to LC–MS/MS analysis.

[10] = Whole blood stability, rat; format: in vitro ADME; settings: 37 °C, after two hours, read-out: percent remaining in whole blood
Procedure: as §4

Plasma stability, dog = format: in vitro ADME; settings: 37 °C
Procedure: as §4

[11] = Whole blood stability, human; format: in vitro ADME; settings: 37 °C, after two hours, human whole blood, read-out: percent remaining in whole blood
Procedure: as §4

[12] = Liver microsome stability assay, dog; format: in vitro ADME; settings: 1 µM; for percent of compound remaining: 37 °C
Procedure: as §5

[13] = Liver microsome stability assay, rat; format: in vitro ADME; settings: 1 µM; for percent of compound remaining: male rat liver microsomes, 37 °C
Procedure: as §5

[14] = Whole blood stability, dog; format: in vitro ADME; settings: 37 °C, after two hours, read-out: percent remaining in whole blood
Procedure: as §4

Plasma stability, rat = format: in vitro ADME; settings: 37 °C
Procedure: as §4

[15] = Cisplatin 3 mg/kg BIW x 2 weeks, n=5
[16] = Paclitaxel 20 mg/kg TIW x 2 weeks, n=5
[17] = Paclitaxel 15 mg/kg SIW x 2 weeks, n=3
[18] = paclitaxel 15 mg/kg SIW x 2 weeks
[19] = Paclitaxel 15 mg/kg SIW x 2 weeks, n=7
[20] = Eribulin mesylate 1 mg/kg SIW x 2 weeks, n=7

Compound: N.N.[Cl][Pt][Cl] [cisplatin]
- CR (complete response), number of animals (KB-CR tumors; [15]): 0
- Cures, number of animals (KB-CR tumors; [15]): 0
- PR (partial response), number of animals (KB-CR tumors; [15]): 0
- antitumor effect (KB-CR tumors; cisplatin 3 mg/kg BIW x 2 weeks): very little effect

Compound: CC(=O)O[C@H]1C(=O)[C@@]2(C)[C@H]([C@H](OC(=O)c3ccccc3)[C@]3(O)C[C@H](OC(=O)[C@H](O)[C@@H](NC(=O)c4ccccc4)c4ccccc4)C(C)=C1C3(C)C)[C@]1(OC(C)=O)CO[C@@H]1C[C@@H]2O [paclitaxel]
- CR (complete response), number of animals (KB-PR tumors; [16]): 0
- Cures, number of animals (KB-PR tumors; [16]): 0
- PR (partial response), number of animals (KB-PR tumors; [16]): 0
- antitumor effect (KB-PR tumors; paclitaxel 20 mg/kg TIW x 2 weeks): very little effect
- CR (complete response), number of animals [1, 17]: 0
- Cures, number of animals [1, 17]: 0
- PR (partial response), number of animals [1, 17]: 0
- antitumor effect [1, 18]: modest tumor growth delay
- CR (complete response), number of animals [2, 19]: 0
- Cures, number of animals [2, 19]: 0
- PR (partial response), number of animals [2, 19]: 0
- antitumor effect [2, 18]: essentially inactive

Compound: C=C1C[C@@H]2CC[C@@]34C[C@H]5O[C@H]6[C@@H](O3)[C@H]3O[C@H](CC[C@@H]3O[C@H]6[C@H]5O4)CC(=O)C[C@@H]3[C@@H](OC)[C@@H](C[C@H](O)CN)O[C@H]3C[C@H]3O[C@@H](CC[C@@H]1O2)C[C@@H](C)C3=C [eribulin mesylate]
- CR (complete response), number of animals [3, 20]: 0
- Cures, number of animals [3, 20]: 0
- PR (partial response), number of animals [3, 20]: one
- PR (partial response), number of animals ([3]; Eribulin mesylate 1 mg/kg SIW x 2 weeks, n=7, listed as Eribulin mesylate): 1
- antitumor activity ([3]; eribulin mesylate 1 mg/kg SIW x 2 weeks): did not display significant anti-tumor activity
- CR (complete response), number of animals [4]: 0
- Cures, number of animals [4]: 0
- PR (partial response), number of animals [4]: two
- PR (partial response), number of animals ([4]; listed as Eribulin mesylate): 2

Compound: C=C1C[C@H]2C=Nc3cc(OCCCOc4cc5c(cc4OC)C(=O)N4CC(=C)C[C@H]4C=N5)c(OC)cc3C(=O)N2C1 [SJG-136]
- clinical toxicity [5]: dose-limiting hepatotoxicity and vascular leak syndrome
- average weight loss (KB tumor xenografts): ~ 10%
- deaths, number of animals (KB tumor xenografts; at 2 weeks post start of treatment, n=5): one
- CR (complete response), number of animals (KB tumor xenografts; n=5): 0
- Cures, number of animals (KB tumor xenografts; n=5): 2
- PR (partial response), number of animals (KB tumor xenografts; n=5): 2

Compound: C=C1C[C@H]2C=Nc3cc(OCCCCCOc4cc5c(cc4OC)C(=O)N4CC(=C)C[C@H]4C=N5)c(OC)cc3C(=O)N2C1 [EC2491]
- remaining at 2 h, 500 nM [6]: 87.3%
- stability in buffer [7]: stable
- percent of compound remaining ([8]; absence of NADPH, after 1 h): ~49%
- percent of compound remaining ([8]; presence of NADPH, end of 1 h): 18%
- time stable in plasma (Plasma stability, mouse): greater than 24 h
- fraction unbound at 30 min, 500 nM [9]: 0.02 to 0.05
- remaining at 2 h, 500 nM [10]: 95.6%
- time stable in plasma (Plasma stability, dog): greater than 24 h
- remaining at 2 h, 500 nM [11]: 80.6%
- percent of compound remaining ([12]; dog liver microsomes, absence of NADPH, after 1 h): ~56%
- percent of compound remaining ([12]; male dog liver microsomes, presence of NADPH, end of 1 h): 22%
- metabolism in CYP3A induced microsomes versus corn-oil treated controls ([12]; rifampin-treated dog liver microsomes, + NADPH): more rapid metabolism
- metabolism in CYP3A induced microsomes versus corn-oil treated controls ([13]; dexamethasone-treated male rat liver microsomes, + NADPH): more rapid metabolism
- percent of compound remaining ([13]; absence of NADPH, after 1 h): approximately 63%
- percent of compound remaining ([13]; presence of NADPH, end of 1 h): 2%
- remaining at 2 h, 500 nM [14]: 63.1%
- time stable in plasma (Plasma stability, rat): greater than 24 h
